# Results published in patent US8372871B2, “Histidinol dehydrogenase inhibitors, and use thereof as medicaments” (priority 2008, dated 2013).
# Experiments:
# [1] = molecular target: B. suis histidinol dehydrogenase (Brucella suis biovar 1, UniProt Q8G2R2); test: biochemical; format: biochemical
# [2] = system: B. suis; test: microbe, parasite or virus in culture; format: cell-based, Brucella suis; settings: for inhibition at 50 µM / inhibition at 100 µM: Brucella suis, 168 h, read-out: Effects on the growth of B. suis (%) (inhibition of bacterial growth)
# Sequence of B. suis histidinol dehydrogenase (Q8G2R2 whole entry, looked up): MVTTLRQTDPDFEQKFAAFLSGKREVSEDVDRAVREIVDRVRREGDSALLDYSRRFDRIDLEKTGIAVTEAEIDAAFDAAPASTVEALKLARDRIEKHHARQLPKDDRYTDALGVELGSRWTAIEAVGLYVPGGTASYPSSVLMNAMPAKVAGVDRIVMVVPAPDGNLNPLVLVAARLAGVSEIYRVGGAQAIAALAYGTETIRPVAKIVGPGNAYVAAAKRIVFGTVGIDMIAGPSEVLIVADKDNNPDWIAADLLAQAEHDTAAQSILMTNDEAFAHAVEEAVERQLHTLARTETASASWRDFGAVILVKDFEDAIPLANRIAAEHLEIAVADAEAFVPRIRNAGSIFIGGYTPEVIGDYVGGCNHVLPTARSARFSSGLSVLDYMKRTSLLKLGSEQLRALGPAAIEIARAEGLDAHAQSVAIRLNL
SMILES,IC50 [1] [nM],melting point,also measured
"N[C@@H](Cc1c[nH]cn1)C(=O)Cc1ccc(-c2ccc3ccccc3c2)cc1 [Compound 2h, (3S)-3-amino-4-(1H-imidazol-4-yl)-1-[4-(2-naphthhyl)phenyl] butan-2-one dihydrochlorhydrate]",30,,Inhibition of the growth of the bacteria in liquid medium [2]: completely inhibit; inhibition at 50 µM [2]: 100%; inhibition at 100 µM [2]: 100%
"COc1ccc(-c2ccc(CC(=O)[C@@H](N)Cc3c[nH]cn3)cc2)cc1 (hydrate or solvate) [Compound 2c, (3S)-3-amino-4-(1H-imidazol-4-yl)-1-(4′-methoxybiphenyl-4-yl)butan-2-one dihydrochlorhydrate]",,210 °C (dec.),
"Cc1ccc(/C=C/c2ccc(CC(=O)[C@@H](N)Cc3c[nH]cn3)cc2)cc1 (hydrate or solvate) [Compound 2k, (3S)-3-amino-4-(1H-imidazol-4-yl)-1-{4-[(E)-2-(4-methylphenyl)vinyl]phenyl}butan-2-one dihydrochlorhydrate]",,200 °C (dec.),
"Cc1ccc(C#Cc2ccc(CC(=O)[C@@H](N)Cc3c[nH]cn3)cc2)cc1 (hydrate or solvate) [Compound 3b, (3S)-3-amino-4-(1H-imidazol-4-yl)-1-{4-[(4-methylphenyl)ethynyl]phenyl}butan-2-one dihydrochlorhydrate]",,181 °C (dec.),
"CC(C)(C)c1ccc(C#Cc2ccc(CC(=O)[C@@H](N)Cc3c[nH]cn3)cc2)cc1 [Compound 3c, (3S)-3-amino-1-{4-[(4-tert-butylphenyl)ethynyl]phenyl}-4-(1H-imidazol-4-yl)butan-2-one dihydrochlorhydrate]",65,,inhibition at 50 µM [2]: 30%; inhibition at 100 µM [2]: 30%
N[C@@H](Cc1c[nH]cn1)C(=O)Cc1ccc(-c2ccc(Br)cc2)cc1 (hydrate or solvate),,199 °C (dec.),
"N[C@@H](Cc1c[nH]cn1)C(=O)Cc1ccc(CCc2ccccc2)cc1 [Compound 2i, (3S)-3-amino-4-(1H-imidazol-4-yl)-1-[4-(2-phenylethyl)phenyl] butan-2-one dihydrochlorhydrate]",13,,
"N[C@@H](Cc1c[nH]cn1)C(=O)Cc1ccc(-c2ccc(C(F)(F)F)cc2)cc1 (hydrate or solvate) [Compound 2d, (3S)-3-amino-4-(1H-imidazol-4-yl)-1-[4′-(trifluoromethyl)biphenyl-4-yl]butan-2-one dihydrochlorhydrate]",,149 °C (dec.),
"N[C@@H](Cc1c[nH]cn1)C(=O)Cc1ccc(-c2ccc(Oc3ccccc3)cc2)cc1 (hydrate or solvate) [Compound 2f, (3S)-3-amino-4-(1H-imidazol-4-yl)-1-(4′-phenoxybiphenyl-4-yl)butan-2-one dihydrochlorhydrate]",,198 to 200 °C,
N[C@@H](Cc1c[nH]cn1)C(=O)Cc1ccc(-c2ccc(-c3ccccc3)cc2)cc1 (hydrate or solvate),,200 °C (dec.),
"N[C@@H](Cc1c[nH]cn1)C(=O)Cc1ccc(/C=C/c2ccc(C(F)(F)F)cc2)cc1 (hydrate or solvate) [Compound 2l, (3S)-3-amino-4-(1H-imidazol-4-yl)-1-(4-{(E)-2-[4-(trifluoromethyl)phenyl]vinyl}phenyl) butan-2-one dihydrochlorhydrate]",,186 °C (dec.),
"N[C@@H](Cc1c[nH]cn1)C(=O)Cc1ccc(-c2ccc3ccccc3c2)cc1 (hydrate or solvate) [Compound 2h, (3S)-3-amino-4-(1H-imidazol-4-yl)-1-[4-(2-naphthhyl)phenyl] butan-2-one dihydrochlorhydrate]",,205 °C (dec.),
"N[C@@H](Cc1c[nH]cn1)C(=O)Cc1ccc(/C=C/Cc2ccccc2)cc1 (hydrate or solvate) [Compound 2m, (3S)-3-amino-4-(1H-imidazol-4-yl)-1-{4-[(1E)-3-phenylprop-1-en-1-yl]phenyl}butan-2-one dihydrochlorhydrate]",,178 to 180 °C,
"Cc1ccc(-c2ccc(CC(=O)[C@@H](N)Cc3c[nH]cn3)cc2)cc1 (hydrate or solvate) [Compound 2a, (3S)-3-amino-4-(1H-imidazol-4-yl)-1-(4′-methylbiphenyl-4-yl)butan-2-one dihydrochlorhydrate]",,203 °C (dec.),
"CCCCc1ccc(-c2ccc(CC(=O)[C@@H](N)Cc3c[nH]cn3)cc2)cc1 [Compound 2b, (3S)-3-amino-1-(4′-butylbiphenyl-4-yl)-4-(1H-imidazol-4-yl) butan-2-one dihydrochlorhydrate]",40,,inhibition at 50 µM [2]: 50%; inhibition at 100 µM [2]: 60%
"N[C@@H](Cc1c[nH]cn1)C(=O)Cc1ccc(/C=C/c2ccc(C(F)(F)F)cc2)cc1 [Compound 2l, (3S)-3-amino-4-(1H-imidazol-4-yl)-1-(4-{(E)-2-[4-(trifluoromethyl)phenyl]vinyl}phenyl) butan-2-one dihydrochlorhydrate]",65,,

SMILES,IC50 [1] [nM],melting point,also measured
"Cc1ccc(-c2ccc(CC(=O)[C@@H](N)Cc3c[nH]cn3)cc2)cc1 [Compound 2a, (3S)-3-amino-4-(1H-imidazol-4-yl)-1-(4′-methylbiphenyl-4-yl)butan-2-one dihydrochlorhydrate]",30,,inhibition at 50 µM [2]: 30%; inhibition at 100 µM [2]: 40%
"N[C@@H](Cc1c[nH]cn1)C(=O)Cc1ccc(-c2ccc(Oc3ccccc3)cc2)cc1 [Compound 2f, (3S)-3-amino-4-(1H-imidazol-4-yl)-1-(4′-phenoxybiphenyl-4-yl)butan-2-one dihydrochlorhydrate]",70,,inhibition at 50 µM [2]: 70%; inhibition at 100 µM [2]: 90%
"N[C@@H](Cc1c[nH]cn1)C(=O)Cc1ccc(C#Cc2ccccc2)cc1 (hydrate or solvate) [Compound 3a, (3S)-3-amino-4-(1H-imidazol-4-yl)-1-[4-(phenylethynyl)phenyl] butan-2-one dihydrochlorhydrate]",,194 °C (dec.),
"N[C@@H](Cc1c[nH]cn1)C(=O)Cc1ccc(/C=C/Cc2ccccc2)cc1 [Compound 2m, (3S)-3-amino-4-(1H-imidazol-4-yl)-1-{4-[(1E)-3-phenylprop-1-en-1-yl]phenyl}butan-2-one dihydrochlorhydrate]",30,,
"CCCCc1ccc(-c2ccc(CC(=O)[C@@H](N)Cc3c[nH]cn3)cc2)cc1 (hydrate or solvate) [Compound 2b, (3S)-3-amino-1-(4′-butylbiphenyl-4-yl)-4-(1H-imidazol-4-yl) butan-2-one dihydrochlorhydrate]",,155 °C (dec.),
"Cc1ccc(C#Cc2ccc(CC(=O)[C@@H](N)Cc3c[nH]cn3)cc2)cc1 [Compound 3b, (3S)-3-amino-4-(1H-imidazol-4-yl)-1-{4-[(4-methylphenyl)ethynyl]phenyl}butan-2-one dihydrochlorhydrate]",40,,
"N[C@@H](Cc1c[nH]cn1)C(=O)Cc1ccc(-c2ccc(C(F)(F)F)cc2)cc1 [Compound 2d, (3S)-3-amino-4-(1H-imidazol-4-yl)-1-[4′-(trifluoromethyl)biphenyl-4-yl]butan-2-one dihydrochlorhydrate]",30,,inhibition at 50 µM [2]: 70%; inhibition at 100 µM [2]: 90%
"COc1ccc(-c2ccc(CC(=O)[C@@H](N)Cc3c[nH]cn3)cc2)cc1 [Compound 2c, (3S)-3-amino-4-(1H-imidazol-4-yl)-1-(4′-methoxybiphenyl-4-yl)butan-2-one dihydrochlorhydrate]",20,,inhibition at 50 µM [2]: 30%; inhibition at 100 µM [2]: 60%
N[C@@H](Cc1c[nH]cn1)C(=O)Cc1ccc(/C=C/c2ccc(-c3ccccc3)cc2)cc1 (hydrate or solvate),,200 °C (dec.),
"Cc1ccc(/C=C/c2ccc(CC(=O)[C@@H](N)Cc3c[nH]cn3)cc2)cc1 [Compound 2k, (3S)-3-amino-4-(1H-imidazol-4-yl)-1-{4-[(E)-2-(4-methylphenyl)vinyl]phenyl}butan-2-one dihydrochlorhydrate]",40,,Inhibition of the growth of the bacteria in liquid medium [2]: completely inhibit; inhibition at 50 µM [2]: 100%; inhibition at 100 µM [2]: 100%
"CCCCCc1ccc(C#Cc2ccc(CC(=O)[C@@H](N)Cc3c[nH]cn3)cc2)cc1 (hydrate or solvate) [Compound 3d, (3S)-3-amino-4-(1H-imidazol-4-yl)-1-{4-[(4-pentylphenyl)ethynyl]phenyl}butan-2-one dihydrochlorhydrate]",,184 °C (dec.),
"CCCCCc1ccc(C#Cc2ccc(CC(=O)[C@@H](N)Cc3c[nH]cn3)cc2)cc1 [Compound 3d, (3S)-3-amino-4-(1H-imidazol-4-yl)-1-{4-[(4-pentylphenyl)ethynyl]phenyl}butan-2-one dihydrochlorhydrate]",8.5,,inhibition at 50 µM [2]: 30%; inhibition at 100 µM [2]: 30%
"N[C@@H](Cc1c[nH]cn1)C(=O)Cc1ccc(/C=C/c2ccccc2)cc1 (hydrate or solvate) [Compound 2j, (3S)-3-amino-4-(1H-imidazol-4-yl)-1-{4-[(E)-2-phenylvinyl]phenyl}butan-2-one dihydrochlorhydrate]",,195 °C (dec.),
"N[C@@H](Cc1c[nH]cn1)C(=O)Cc1ccc(CCc2ccccc2)cc1 (hydrate or solvate) [Compound 2i, (3S)-3-amino-4-(1H-imidazol-4-yl)-1-[4-(2-phenylethyl)phenyl] butan-2-one dihydrochlorhydrate]",,168 to 170 °C,
N[C@@H](Cc1c[nH]cn1)C(=O)Cc1ccc(C#Cc2ccc(-c3ccccc3)cc2)cc1 (hydrate or solvate),,196 °C (dec.),
"N[C@@H](Cc1c[nH]cn1)C(=O)Cc1ccc(/C=C/c2ccccc2)cc1 [Compound 2j, (3S)-3-amino-4-(1H-imidazol-4-yl)-1-{4-[(E)-2-phenylvinyl]phenyl}butan-2-one dihydrochlorhydrate]",25,,
